From patent US6465614B1, “High-affinity response-selective C-terminal analogs of C5a anaphylatoxin” (priority 1994, dated 2002)
Like-named read-outs stand apart in the source and are kept apart here. Square brackets hold non-standard residues; d marks the D form. Ends that are not written are not given here. Peptide text beside a SMILES is read from it.

T1: human neutrophils (PMN) (Homo sapiens, UniProt P21730)
T1 sequence (P21730 1-350): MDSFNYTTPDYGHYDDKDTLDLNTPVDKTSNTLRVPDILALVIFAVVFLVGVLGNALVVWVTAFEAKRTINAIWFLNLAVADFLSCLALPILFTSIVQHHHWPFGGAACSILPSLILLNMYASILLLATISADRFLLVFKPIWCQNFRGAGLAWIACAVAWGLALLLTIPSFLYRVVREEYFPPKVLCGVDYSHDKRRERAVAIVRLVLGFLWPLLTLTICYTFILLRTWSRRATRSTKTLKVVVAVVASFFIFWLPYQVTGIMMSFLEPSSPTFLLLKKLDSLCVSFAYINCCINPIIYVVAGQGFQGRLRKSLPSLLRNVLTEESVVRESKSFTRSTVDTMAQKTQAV

T2: human fetal artery (Homo sapiens, UniProt P21730)
T2 sequence (P21730 1-350): T1 sequence (P21730 1-350)

B1: C5a: C5a anaphylatoxin, 74-residue human glycoprotein; human recombinant C5a (Sigma) or natural C5a used as standard (protein, UniProt P01031 678-751, looked up)
C5a anaphylatoxin: TLQKKIEEIAAKYKHSVVKKCCYDGACVNNDETCEQRAARISLGPRCIKAFTECCVVASQLRANISHKDMQLGR
modifications: C5a anaphylatoxin
notes: C5a anaphylatoxin, 74-residue human glycoprotein; human recombinant C5a (Sigma) or natural C5a used as standard

Key:
human neutrophils (PMN) [1] = molecular target: T1, human neutrophils (PMN); assay type: cell-based
Procedure: The release of glucuronidase from human neutrophils was determined as described by Schroder et al. (1987), J. Immunol., 139: 3474-3483. Briefly, human neutrophils were pretreated with cytochalasin B (5 μg/ml, 10 min, 37° C.). The cells (10^6) were incubated in the presence of stimulants for 60 minutes at 37° C. in a final volume of 200 μl and then centrifuged. The supernatant was collected and 50 μl were incubated with 50 μl of 0.01 M P-nitrophenyl-β-D-glucuronide (in 0.1 M sodium acetate at pH 4 for 18 h) as triplicate determinations in 96-well microtiter plates (Corning). The reaction was stopped by addition of 100 μl of 0.4 M gly buffer at pH 10. The reaction developed color that was read at 405 nm in a Titertec Multiscan (MCC/340) ELISA reader. The β-glucuronidase released was expressed as the percentage of total enzyme in the cell that could be released by addition of 0.2% Triton X-100 (Pierce).

human neutrophils (PMN) [2] = molecular target: T1, human neutrophils (PMN); assay type: cell-based; remark: listed apart in the source
Procedure: Neutrophil polarization assays were conducted as described by Ember et al., 1992, supra. Human neutrophils (PMN) were prepared according to the procedure described by Dahinden et al. (1979), J. Immunol., 130: 857-862. The assay for measuring the effect of C5a analogs on PMN polarization was described by Haston & Shields (1985), J. Immunol. Methods, 81: 229-237. Briefly, PMN (1×10^6 cells/ml) were suspended in 10 mM 3- (N-morpholino) propane sulfonic acid (Sigma Chemical Co.) containing EBSS. […] After 10 minutes of incubation at room temperature, the cells were washed twice and stored until microscopic examination. Cells deviating from the typical spherical shape were visually scored as polarized. Results are expressed as percent of polarized cells per total cells counted (300 cells counted/sample).

guinea-pig platelets = experiment: Guinea-pig platelet aggregation assay; assay type: cell-based; details: for Platelet Aggreg (threshold concentration producing visible platelet aggregation): guinea-pig platelets, threshold response
Procedure: This assay was performed on platelets obtained from the arterial blood of anesthetized male Hartley guinea pigs according to previously published methods (Ember et al., 1992, supra). Briefly, platelet-rich plasma was prepared and diluted to 3×10^8 platelets/ml in 0.39% sodium citrate solution. Peptide samples were diluted in a stepwise fashion in 1.5-fold dilutions and placed in 96-well microplates. A […] peptide sample, […] of platelet-rich plasma, and one 3 mm glass bead were placed in each well. The plates were shaken horizontally at 100 rpm for 5 min at 37° C. Platelet aggregation was evaluated visually in an inverted microscope at 40× magnification. The greatest dilution of peptide producing visible aggregation was scored as the threshold concentration for activity. Natural C5a and C3a were included as internal standards. At least three independent duplicate determinations were conducted for every peptide.

human fetal artery = molecular target: T2, human fetal artery; experiment: Smooth muscle contraction of human fetal artery (spasmogenic assay); assay type: cell-based
Procedure: Tissue strips were suspended in 2 ml organ baths, containing physiological salt solution (Krebs-Ringers solution: 118 mM NaCl, 4.7 mM KCl, 2.5 mM CaCl2, 25 mM NaHCO3, 1.2 mM KH2PO4, 1.2 mM MgSO4, 10 mM Glucose) maintained at 37° C., pH 7.4 and continuously aerated with a […] mixture. Each tissue preparation was equilibrated for 1 hr prior to testing with peptides. All drugs were kept on ice during the procedure and isometric tensions were measured using strain-gauge transducers (Grass FT-03) with a computerized chart recording system (MacLab/8). After the contraction to each peptide reached a plateau, histamine (10 μM) was added to obtain the maximum tissue response. Because tachyphylaxis occurs rapidly to single doses of C5a or peptides, cumulative dose-response curves could not be obtained. Instead, the dose-response profile was compiled from multiple strips from each tissue. After exposing each strip to a single concentration of the peptide followed by supramaximal histamine, the response was expressed as a percentage of the maximal contraction to histamine. Full dose-response curves for C5a (human recombinant C5a; Sigma) or individual peptides were performed in each experiment for each tissue and the EC50 values (i.e., concentration of peptide producing 50t of the maximal response to each peptide) obtained by probit analysis. pD2 transforms [−log EC50 (M)] were calculated for each dose-response curve, and means ±SE obtained for each peptide.
Human umbilical cords were obtained from the Mater Misericordiae Hospital, South Brisbane, Queensland within minutes of delivery. The mid-section of the umbilical cord was cut from the placenta, placed in physiological salt solution and stored at 5° C. for up to 24 hrs. […] The fetal arteries were dissected out and cut into longitudinal strips. The intimal surface of the arteries was rubbed with a cotton bud to remove the endothelium. Strips approximately 2 cm×3 mm were suspended in organ baths under 20 mN of resting tension. Arterial strips were tested repeatedly with peptides following a 60 min drug-free period of rest between assays (Taylor et al. (1994), Inflammation, in press).

serum carboxypeptidases = experiment: Stability toward serum carboxypeptidases (incubation in normal human serum, HPLC); assay type: in vitro ADME; details: 37° C., 1 h
Procedure: FIG. 10. HPLC profiles of decapeptide analogs. FIG. 10A: HPLC of […] (peptide/Sequence I.D. No. 2); a=purified peptide; b=des-Arg peptide ([…]; Sequence I.D. No. 24); c=des-Arg peptide in saline, no incubation; d=des-Arg peptide in saline with incubation for 1 h at 37° C.; e=des-Arg peptide in normal human serum with incubation for 1 h at 37° C. FIG. 10B: HPLC of […]aR (Sequence I.D. No. 10); a=purified peptide; b=peptide in saline, no incubation; c=peptide in saline with incubation for 1 h at 37° C.; d=peptide in normal human serum with incubation for 1 h at 37° C. Solvent system 1: 70 mM triethylamine/phosphoric acid buffer, pH-2.3. Solvent system 2: 60% acetonitrile in the Solvent 1 buffer. Linear gradient of 30-50% solvent 2 at.1%/min, slope=1 ml/min, absorbance monitored at 214 nm.
Both peptides were incubated in normal human serum at 37° C. for 1 h and thereafter reanalyzed on HPLC.

| Molecule | EC50 (human neutrophils (PMN) [2]) [µM] | Platelet Aggreg (threshold concentration producing visible platelet aggregation) (guinea-pig platelets) [µM] | also measured |
| --- | --- | --- | --- |
| CSCC[C@H](NC(=O)[C@H](CC(=O)O)NC(=O)[C@H](CCCCN)NC(=O)[C@H](Cc1ccccc1)NC(=O)[C@H](CO)NC(=O)[C@@H](N)Cc1ccc(O)cc1)C(=O)N[C@@H](CCC(N)=O)C(=O)N[C@@H](CC(C)C)C(=O)N[C@@H](C)C(=O)N[C@@H](CCCNC(=N)N)C(=O)O [peptide 7] | 48 | 34 | EC50 (human neutrophils (PMN) [1]): 1000 µM |
| CSCC[C@H](NC(=O)[C@H](CC(=O)O)NC(=O)[C@H](CCCCN)NC(=O)[C@H](Cc1ccccc1)NC(=O)[C@H](CO)NC(=O)[C@@H](N)Cc1ccc(O)cc1)C(=O)N[C@@H](CCC(N)=O)C(=O)N[C@@H](CC(C)C)C(=O)N[C@H](C)C(=O)N[C@@H](CCCNC(=N)N)C(=O)O [peptide 8] | 1.2 | 20 | EC50 (human neutrophils (PMN) [1]): 32 µM |
| CC(C)C[C@H](NC(=O)[C@@H]1CCCN1C(=O)[C@H](CS)NC(=O)[C@H](CC(=O)O)NC(=O)[C@H](CCCCN)NC(=O)[C@H](Cc1ccccc1)NC(=O)[C@H](CO)NC(=O)[C@@H](N)Cc1ccc(O)cc1)C(=O)N[C@@H](CS)C(=O)N[C@@H](CCCNC(=N)N)C(=O)O [peptide 17] (H-YSFKDCPLCR-OH; N-terminus assumed) | 224 | 4.1 |  |
| CC(C)C[C@@H]1NC(=O)[C@@H]2CCCN2C(=O)[C@@H](NC(=O)[C@H](CC(=O)O)NC(=O)[C@H](CCCCN)NC(=O)[C@H](Cc2ccccc2)NC(=O)[C@H](CO)NC(=O)[C@@H](N)Cc2ccc(O)cc2)CSSC[C@@H](C(=O)N[C@@H](CCCNC(=N)N)C(=O)O)NC1=O [peptide 18] (HELM PEPTIDE1{Y.S.F.K.D.C.P.L.C.R}$PEPTIDE1,PEPTIDE1,6:R3-9:R3$$$V2.0) |  | >410 |  |
| CSCC[C@H](NC(=O)CNC(=O)[C@H](CCCCN)NC(=O)[C@H](Cc1ccccc1)NC(=O)[C@H](CO)NC(=O)[C@@H](N)Cc1ccc(O)cc1)C(=O)N[C@@H](CC(C)C)C(=O)N[C@@H](CC(C)C)C(=O)NCC(=O)N[C@H](CCCNC(=N)N)C(=O)O [peptide 22] (HELM PEPTIDE1{Y.S.F.K.G.M.L.L.G.[dR]}$$$$V2.0; N-terminus and C-terminus assumed) |  |  | agonist character compared to natural C5a in spasmogenic assays (human fetal artery; in words): full agonist of diminished potency; antagonist activity against C5a (human fetal artery; tested at concentrations below those causing contraction or aggregation): devoid of any antagonistic activity |
| ISFKDMQLGR-OH [peptide 1] |  | 86.3 |  |
| YSFKDAPLGR-OH [peptide 15] |  | 7.4 |  |
| YSFKDCPLGR-OH [peptide 16] | 19.5 | 2.3 |  |
| YSFKDMPAGR-OH [peptide 11] | 215 | 101 |  |
| YSFKDMPLGR-OH [peptide 5] |  | 6.3 | increase in potency in spasmogenic and aggregatory activities relative to peptide 2 (human fetal artery; across spasmogenic and platelet aggregation assays (Tables 2 and 3)): 4- to 10 fold; log potency ratio at the EC50 level compared to C5a (human fetal artery; fetal artery): 2.01±0.12; % of C5a potency (human fetal artery; fetal artery, from log potency ratio at EC50 level): 1% |
| YSFKDMPPGR-OH [peptide 6] | 50 | 80 | EC50 (human neutrophils (PMN) [1]): 700 µM |
| YSFKDMQIGR [peptide 9] |  | 150 |  |
| YSFKDMQLGR [peptide 2] |  |  | cleavage of the C-terminal Arg (serum carboxypeptidases): significant cleavage |
| YSFKDMQLPR-OH [peptide 3] | 500 | 225 |  |
| YSFKDMQPGR-OH [peptide 4] |  | 500 |  |
| YSFKGLLLGR-OH [peptide 21] |  | 21 |  |
| YSFKGMLLGR-OH [peptide 20] |  | 10.5 | potency compared with peptide 2 in human fetal artery (human fetal artery; in words): about two times more potent; potency compared with peptide 2 in guinea-pig platelet assay (guinea-pig platelets; in words): about two times more potent |
| YSFKGMPLGR-OH [peptide 23] | 2 | 6.3 | EC50 (human neutrophils (PMN) [1]): 49.6 µM |
| YSFKPMQLaR (YSFKPMQL[dA]R) [peptide 24] |  |  | potency relative to natural C5a for elicitation of a spasmogenic response (Class 1) (human fetal artery; smooth muscle contraction assay, percent of natural/full C5a potency): 20-30% |
| B1 |  | 0.023 | EC50 (human fetal artery; human fetal artery contraction, mean EC50 from individual experiments): 0.018 µM; EC50 (human neutrophils (PMN) [1]; human neutrophils, β-glucuronidase release, read-out: PMN Enzyme Release EC50): 0.0123 µM; EC50 (human neutrophils (PMN) [2]; human neutrophils, read-out: PMN Polarization EC50): 0.0013 µM |
